Assay results taken from patent publication US20240270731A1, “[…]” (ALEBUND PHARMACEUTICALS (HONG KONG) LIMITED, priority 2021, published 2024).

Tests used:
[1] = tested on: uninephrectomied db/db mice; experiment: Diabetic nephropathy pharmacodynamic model (uninephrectomied db/db mice)
Description: Housing temperature was maintained at 22-26° C. and humidity at 40%-60%. Mice were allowed to access food and water ad libitum. […] Buprenorphine was applied after surgery.
Two weeks after surgery, db/db mice were randomly assigned into 5 groups. Wild type mice were used for the control animals. […] Compounds were orally administrated once per day for 10 weeks.
At the 5th and 9th week after compound administration, mice were placed in metabolic cages for urine collection. Albumin level was measured for 24 hr albumin excretion calculation. At the 10th week after treatment, the animals were sacrificed for kidney dissection. The kidney was fixed in 10% neutral buffed formalin, then paraffin-embedded for histopathological analysis. Glomerulosclerosis was assessed by evaluating glomerular basement membrane, mesangial expansion, nodular sclerosis and glomerulosclerosis.
Graphpad 8.0 software was used for statistical analysis. The difference between the values were analyzed with one-way ANOVA. The difference between histopathological score was analyzed with Kruskal-Wallis nonparameter test.

[2] = tested on: db/db type 2 diabetes model; experiment: Pharmacodynamics study on the db/db type 2 diabetes model
Excerpt: 45 db/db mice were evenly divided into 5 groups before the initiation of treatment based on the body weights, serum triglyceride (TG) levels, and random blood glucose levels.
All animals were weighed daily before each dosing and treated daily for 14 consecutive days.
All the data was imported into an Excel file and presented as Mean±SEM. Graphpad Prism 7.0 software was used for data statistical analysis by One-way or Two-way ANOVA, with P<0.05 as the criterion of significant differences.

[3] = tested on: rat model of hyperlipidemia induced by high cholesterol diet; experiment: Rat model of hyperlipidemia induced by high cholesterol diet (serum TG, NEFA); type: in vivo, Sprague-Dawley rats
Excerpt: On the day before the start of the administration (Day 0), the animals were divided into 7 groups based on body weights and serum indicators and were continually fed with the high-cholesterol diet. The treatment groups were orally dosed with either compound or vehicle while continuing the high-cholesterol diet for a total of 1 week. The animals were weighed daily before the treatment, and the compounds were given at 9:00-9:30 in the morning based on the body weight of the day.

[4] = tested on: rat model of unilateral ureteral obstruction; experiment: Renal injury in rat model of unilateral ureteral obstruction; conditions: 0.2 mg/kg oral daily, 14 treatment days
Description: Housing temperature was maintained at 20-26° C. and humidity at 40%-60%. Rats were fed with a standard chow and allowed to access food and water ad libitum.
The formulation was prepared twice a week.
Vehicle or compounds were administrated by orally gavage daily. Unilateral ureteral obstruction was performed on the second day of compound treatment. Animals in model group, reference group and compound group underwent urethral ligation under isoflurane anesthesia one hour after receiving compound administration. A flank incision was cut to expose the left ureter, and a 4-0 surgical suture was used to perform two-point ligation to achieve urethral obstruction. Ureter was cut between the two ligation points. Animals in the control group were subjected to the same surgical treatment except the ligation and cut.
Rats were sacrificed after 14 days' compound treatment. The obstructed kidney was weighed and collected for histology. The tissue samples were fixed with formalin, and then paraffin embedded. The embedded tissue was sectioned and stained with hematoxylin & eosin and Masson trichrome to assess kidney structure and fibrosis.
The multiple comparison was analyzed with the Kruskal-Wallis non-parameter test. The Dunn's test was used to compare the difference to the model group.

Compound: CO[C@@H](Cc1ccc(OCCc2nc(-c3ccccc3)oc2C)c2ccsc12)C(=O)O (single isomer, unassigned) [Compound 2]
- 24-hour urinary albumin compared with vehicle ([1]; 5th and 9th weeks after compound administration, 0.1, 0.3, 1 mg/kg oral once per day): significantly decreased
- Renal tubular injury (histopathology) ([1]; all dosage levels (0.1, 0.3, 1 mg/kg), 10 weeks): improved the tubular injury at some extend
- Glomerulosclerosis histopathological score and glomerular volume ([1]; high dose (1 mg/kg), 10 weeks): statistically significantly reduced
- OGTT blood glucose compared with the vehicle group ([2]; 0.05 mg/kg, all time points): did not reach statistical significance
- Serum TG levels compared with the vehicle group ([2]; Day 6 and Day 12, Aleglitazar 0.2 mg/kg, Compound 2 at different dosages): significantly lower
- Effect on lowering blood glucose compared with Aleglitazar ([2]; random blood glucose, Day 7 and Day 14): slightly weaker effect
- OGTT AUC0-120min compared with Aleglitazar ([2]; same dose level (0.2 mg/kg)): higher
- Serum NEFA compared with Aleglitazar ([3]; 0.2 mg/kg, T-test, P<0.05): significantly reduce
- Serum TG compared with Aleglitazar ([3]; 0.2 mg/kg, T-test, P<0.05): significantly reduce
- Serum TG and NEFA levels compared with the vehicle group ([3]; Day 8, both 0.2 mg/kg and 0.6 mg/kg): significantly reduce
- Total score of renal focal lesions (infract, tubular dilation, tubular obstruction, fibrosis, necrosis) compared with model group [4]: significantly improved
